Read-outs that look alike come from different tables or passages of the source.
Tests used:
SK-MEL-25 = experiment: Melanoma cytotoxicity assay (resazurin); type: cell-based; conditions: SK-MEL-25 melanoma cells, 24 hours with compound, resazurin; concentration not given
Procedure, shortened: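 ~4000 cells/well seeded 24 h, then compound added in triplicate for 24 h at 37° C, 5% CO2. Resazurin added for 6 h; fluorescence at 544/590 nm, background-subtracted and normalised to DMSO wells as % viability; IC50 from sigmoidal fit of serial dilutions.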

NCI-H522 (NSCLC) = experiment: NCI 60 one dose screen; type: cell-based, human; conditions: Non-small Cell Lung Cancer
SF-295 = experiment: NCI 60 one dose screen; type: cell-based, human; conditions: one dose; CNS Cancer; SF-295
[1] = test system: 60 different human tumor cell lines; conditions: for GI50 / TGI: five dose
[2] = A549/ATCC (Non-small Cell Lung Cancer)
[3] = HOP-62 (Non-small Cell Lung Cancer)
[4] = HOP-92 (Non-small Cell Lung Cancer)
[5] = MDA-MB-231/ATCC (Breast Cancer)
[6] = NCI-H23 (Non-small Cell Lung Cancer)
[7] = NCI-H322M (Non-small Cell Lung Cancer)
[8] = NCI-H460 (Non-small Cell Lung Cancer)
[9] = NCI-H522 (Non-small Cell Lung Cancer)

(1S,2R,13R,14S,18S)-7-(2,4-dimethylanilino)-2,18-dimethyl-6-thia-8-azapentacyclo[11.7.0.02,10.05,9.014,18]icosa-5(9),7,10-trien-17-one [IIa.14]
SK-MEL-25 (% inhibition) (SK-MEL-25): 15%
Growth Percent (NCI-H522 (NSCLC)): 24.64%
Growth Percent (SF-295): 63.77%
CC50 [1]: > 100000 nM
GI50 ([1]; 786-0 (Renal Cancer)): 1620 nM
TGI ([1]; 786-0 (Renal Cancer)): 3.07E−6
GI50 ([1]; A498 (Renal Cancer)): 2540 nM
GI50 [1, 2]: 3500 nM
TGI [1, 2]: >1.00E−4
GI50 ([1]; ACHN (Renal Cancer)): 2080 nM
TGI ([1]; ACHN (Renal Cancer)): 4.53E−6
GI50 ([1]; BT-549 (Breast Cancer)): 1490 nM
TGI ([1]; BT-549 (Breast Cancer)): 2.94E−6
GI50 ([1]; CAKI-1 (Renal Cancer)): 2830 nM
TGI ([1]; CAKI-1 (Renal Cancer)): >1.00E−4
GI50 ([1]; CCRF-CEM (Leukemia)): 2450 nM
TGI ([1]; CCRF-CEM (Leukemia)): >1.00E−4
GI50 ([1]; COLO 205 (Colon Cancer)): 2500 nM
TGI ([1]; COLO 205 (Colon Cancer)): 6.54E−6
GI50 ([1]; DU-145 (Prostate Cancer)): 2040 nM
TGI ([1]; DU-145 (Prostate Cancer)): 5.18E−6
GI50 ([1]; EKVX (Non-small Cell Lung Cancer)): 2130 nM
GI50 ([1]; HCC-2998 (Colon Cancer)): 1900 nM
TGI ([1]; HCC-2998 (Colon Cancer)): 3.74E−6
GI50 ([1]; HCT-15 (Colon Cancer)): 2680 nM
GI50 ([1]; HCT-116 (Colon Cancer)): 1490 nM
TGI ([1]; HCT-116 (Colon Cancer)): 2.85E−6
GI50 ([1]; HL-60(TB) (Leukemia)): 2470 nM
TGI ([1]; HL-60(TB) (Leukemia)): 6.03E−6
GI50 [1, 3]: 2430 nM
TGI [1, 3]: 6.92E−6
GI50 [1, 4]: 1720 nM
TGI [1, 4]: 3.86E−6
GI50 ([1]; HS 578T (Breast Cancer)): 3750 nM
TGI ([1]; HS 578T (Breast Cancer)): >1.00E−4
GI50 ([1]; HT29 (Colon Cancer)): 2550 nM
TGI ([1]; HT29 (Colon Cancer)): 7.04E−6
GI50 ([1]; IGROV1 (Ovarian Cancer)): 2110 nM
TGI ([1]; IGROV1 (Ovarian Cancer)): 5.14E−6
GI50 ([1]; K-562 (Leukemia)): 2860 nM
TGI ([1]; K-562 (Leukemia)): >1.00E−4
GI50 ([1]; KM12 (Colon Cancer)): 2780 nM
GI50 ([1]; LOX IMVI (Melanoma)): 1640 nM
TGI ([1]; LOX IMVI (Melanoma)): 3.13E−6
GI50 ([1]; M14 (Melanoma)): 1850 nM
TGI ([1]; M14 (Melanoma)): 3.79E−6
GI50 ([1]; MALME-3M (Melanoma)): 1990 nM
TGI ([1]; MALME-3M (Melanoma)): 5.55E−6
GI50 ([1]; MCF7 (Breast Cancer)): 2310 nM
TGI ([1]; MCF7 (Breast Cancer)): >1.00E−4
GI50 [1, 5]: 2330 nM
TGI [1, 5]: 7.92E−6
GI50 ([1]; MDA-MB-435 (Melanoma)): 3020 nM
TGI ([1]; MDA-MB-435 (Melanoma)): >1.00E−4
GI50 ([1]; MDA-MB-468 (Breast Cancer)): 1930 nM
TGI ([1]; MDA-MB-468 (Breast Cancer)): 3.93E−6
GI50 ([1]; MOLT-4 (Leukemia)): 2490 nM
TGI ([1]; MOLT-4 (Leukemia)): >1.00E−4
GI50 [1, 6]: 2010 nM
TGI [1, 6]: 4.85E−6
GI50 ([1]; NCI-H226 (Non-small Cell Lung Cancer)): 2350 nM
GI50 [1, 7]: 4280 nM
TGI [1, 7]: >1.00E−4
GI50 [1, 8]: 2700 nM
TGI [1, 8]: 8.39E−6
GI50 [1, 9]: 1680 nM
TGI [1, 9]: 3.28E−6
GI50 ([1]; NCI/ADR-RES (Ovarian Cancer)): 2900 nM
TGI ([1]; NCI/ADR-RES (Ovarian Cancer)): >1.00E−4
GI50 ([1]; OVCAR-3 (Ovarian Cancer)): 2180 nM
TGI ([1]; OVCAR-3 (Ovarian Cancer)): 5.03E−6
GI50 ([1]; OVCAR-4 (Ovarian Cancer)): 2830 nM
TGI ([1]; OVCAR-4 (Ovarian Cancer)): >1.00E−4
GI50 ([1]; OVCAR-5 (Ovarian Cancer)): 2900 nM
TGI ([1]; OVCAR-5 (Ovarian Cancer)): >1.00E−4
GI50 ([1]; OVCAR-8 (Ovarian Cancer)): 2630 nM
TGI ([1]; OVCAR-8 (Ovarian Cancer)): 7.26E−6
GI50 ([1]; PC-3 (Prostate Cancer)): 1860 nM
TGI ([1]; PC-3 (Prostate Cancer)): 4.53E−6
GI50 ([1]; RXF 393 (Renal Cancer)): 1740 nM
TGI ([1]; RXF 393 (Renal Cancer)): 3.23E−6
GI50 ([1]; SF-268 (CNS Cancer)): 2770 nM
GI50 ([1]; SK-MEL-2 (Melanoma)): 2190 nM
TGI ([1]; SK-MEL-2 (Melanoma)): 4.74E−6
